From PMC6994307 (Current Therapeutic Research, Clinical and Experimental, 2019)
“Also recorded” adds a separate entry of the source. Read-outs that look alike come from different tables or passages of the source.

Columns and labels:
human CB1 receptor [1] = molecular target: T1, human CB1 receptor (Homo sapiens, UniProt P21554); assay type: binding; settings: for Effect on binding of agonist CP55,940 (in words): [3H]CP55,940 tracer, modulator 1 nM–10 µM
human CB1 receptor [2] = molecular target: T1, human CB1 receptor; assay type: binding; settings: for cooperativity factor: [3H]SR141716A (1 nM) as orthosteric inverse agonist; for Effect on SR141716A binding (in words): [3H]SR141716A tracer, modulator 1 nM–10 µM
[3] = Computational prediction of physicochemical properties and solubility
CB1 [4] = settings: CP55,940 as the tracer; cited from earlier work
CB1 [5] = settings: cited from earlier work
CB1 [6] = settings: cited from earlier work; remark: listed apart in the source
rats = settings: cited from earlier work
CB1 [7] = settings: cited from earlier work; remark: listed apart in the source
[8] = read-out: KB (equilibrium dissociation), [3H]CP55,940 (0.5 nM) as orthosteric ligand, 95% CI in parentheses, NB = no detectable binding with test compound up to 10 µM
[9] = on introducing ethanolamine into LDK1321 (6a) and LDK1324 (6b)

T1 sequence (P21554 whole entry): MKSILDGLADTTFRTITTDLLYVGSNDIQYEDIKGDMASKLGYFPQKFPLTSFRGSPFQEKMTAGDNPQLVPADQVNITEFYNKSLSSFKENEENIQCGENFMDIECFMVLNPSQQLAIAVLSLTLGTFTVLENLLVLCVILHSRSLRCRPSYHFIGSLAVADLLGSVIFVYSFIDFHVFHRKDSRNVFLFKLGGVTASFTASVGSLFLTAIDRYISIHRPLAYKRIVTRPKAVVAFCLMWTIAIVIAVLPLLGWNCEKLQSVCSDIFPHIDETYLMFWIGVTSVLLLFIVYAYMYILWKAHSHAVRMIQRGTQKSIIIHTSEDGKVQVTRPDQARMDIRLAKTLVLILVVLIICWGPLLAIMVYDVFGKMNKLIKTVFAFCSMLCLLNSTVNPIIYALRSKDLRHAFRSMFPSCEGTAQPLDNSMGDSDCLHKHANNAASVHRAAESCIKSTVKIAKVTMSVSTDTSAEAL

## N#Cc1ccc(NC(=O)Nc2ccc3[nH]ccc3c2)cc1 [LDK1318, 1-(4-Cyanophenyl)-3-(1H-indol-5-yl)urea]
Human CB1 receptor [1]
  Effect on binding of agonist CP55,940 (in words): no binding
Human CB1 receptor [1]; [8]
  Kb: > 10000 nM

## N#Cc1ccc(NC(=O)Nc2cccc(-c3ccnc(NCCO)n3)c2)cc1 [LDK1323, 1-(4-Cyanophenyl)-3-(3-(2-((2-hydroxyethyl)amino)pyrimidin-4-yl)phenyl)urea]
Human CB1 receptor [2]
  cooperativity factor: < 1
  Effect on SR141716A binding (in words): modest decrease
[3]; [9]
  Enhancement of calculated intrinsic solubility: approximately 20 fold
Human CB1 receptor [1]
  Kb: 200 nM
Human CB1 receptor [1]; listed as LDK1323 (8a)
  Effect on binding of agonist CP55,940 (in words): enhanced the binding of agonist CP55,940 to some degree; also recorded: modest, but positive influence

## N#Cc1ccc(NC(=O)Nc2cccc(-c3cccc(Cl)n3)c2)cc1 [LDK1324, 1-(3-(6-Chloropyridin-2-yl)phenyl)-3-(4-cyanophenyl)urea]
Human CB1 receptor [2]
  cooperativity factor: < 1
  Effect on SR141716A binding (in words): robust, dose-dependent decrease
Human CB1 receptor [1]
  Kb: 300 nM
Human CB1 receptor [1]; listed as LDK1324 (6b)
  Effect on binding of agonist CP55,940 (in words): enhanced the binding of agonist CP55,940 to some degree

## N#Cc1ccc(NC(=O)Nc2cccc(-c3ccnc(Cl)n3)c2)cc1 [LDK1321, 1-(3-(2-Chloropyrimidin-4-yl)phenyl)-3-(4-cyanophenyl)urea]
Human CB1 receptor [2]
  cooperativity factor: < 1
  Effect on SR141716A binding (in words): robust, dose-dependent decrease
Human CB1 receptor [1]
  Kb: 85 nM
Human CB1 receptor [1]; listed as LDK1321 (6a)
  Effect on binding of agonist CP55,940 (in words): enhanced the binding of agonist CP55,940 to some degree; also recorded: successful in enhancing the binding of agonist CP55,940

## N#Cc1ccc(NC(=O)Nc2ccc3cc[nH]c3c2)cc1 [LDK1319, 1-(4-Cyanophenyl)-3-(1H-indol-6-yl)urea]
Human CB1 receptor [1]
  Effect on binding of agonist CP55,940 (in words): no binding
Human CB1 receptor [1]; [8]
  Kb: > 10000 nM

## N#Cc1ccc(NC(=O)Nc2cccc(-c3cccc(N4CCCC4)n3)c2)cc1
CB1 [4]
  EC50: 55 nM

## O=C(Nc1ccc(Cl)cc1)Nc1cccc(-c2cccc(N3CCCC3)n2)c1 [PSNCBAM-1, 1-(4-Chlorophenyl)-3-{3-[6-(pyrrolidin-1-yl)pyridin-2-yl]phenyl} urea]
CB1 [5]
  Effect on binding of the CB1 agonist CP55,940: enhanced binding
  Effect on binding of the inverse agonist SR141716A: reducing the binding
CB1 [6]
  Effect in cAMP assay: noncompetitive, inhibitory effects
rats
  Food intake and body weight: reduced food intake and body weight
CB1 [7]
  Effect in GTPγS assay: noncompetitive, inhibitory effects

## CC(=O)Nc1cccc(NC(=O)Nc2ccc(C#N)cc2)c1 [LDK1317, N-(3-(3-(4-Cyanophenyl)ureido)phenyl)acetamide]
Human CB1 receptor [1]
  Kb: 110 nM
  Effect on binding of agonist CP55,940 (in words): enhanced the binding of agonist CP55,940 to some degree

## N#Cc1ccc(NC(=O)Nc2cccc(-c3cccc(NCCO)n3)c2)cc1 [LDK1325, 1-(4-Cyanophenyl)-3-(3-(6-((2-hydroxyethyl)amino)pyridin-2-yl)phenyl)urea]
[3]; [9]
  Enhancement of calculated intrinsic solubility: approximately 20 fold
Human CB1 receptor [1]; listed as LDK1325 (8b)
  Effect on binding of agonist CP55,940 (in words): no binding; also recorded: lost its binding affinity
Human CB1 receptor [1]; [8]
  Kb: > 10000 nM

## CN(C)c1ccc(NC(=O)Nc2ccc(C#N)cc2)cc1 [LDK1320, 1-(4-Cyanophenyl)-3-(4-(dimethylamino)phenyl)urea]
[3]; vs PSNCBAM-1, on reducing the number of rings to 2
  Enhancement of calculated intrinsic solubility: about 400 fold
Human CB1 receptor [1]
  Kb: 830 nM
Human CB1 receptor [1]; listed as LDK1320 (12b)
  Effect on binding of agonist CP55,940 (in words): enhanced the binding of agonist CP55,940 to some degree
